Patent publication US8637549B2, “Pyridons as PDK1 inhibitors” (Boehringer Ingelheim International GmbH, priority 2008, dated 2014)

These compounds were tested against T1, His6-PDK1 (aa 52-556) (Homo sapiens, UniProt O15530) (assay: PDK1 kinase assay III (with Tween 20)). Conditions: 10 μM compound, residual enzyme activity relative to DMSO control, unmarked values, read-out: % CTL.
T1 construct: 15 μL His6-PDK1 (aa 52-556) 3.33 ng/well) and PDKtide; host or cells: baculovirus-infected insect cells
T1 sequence (O15530 52-556): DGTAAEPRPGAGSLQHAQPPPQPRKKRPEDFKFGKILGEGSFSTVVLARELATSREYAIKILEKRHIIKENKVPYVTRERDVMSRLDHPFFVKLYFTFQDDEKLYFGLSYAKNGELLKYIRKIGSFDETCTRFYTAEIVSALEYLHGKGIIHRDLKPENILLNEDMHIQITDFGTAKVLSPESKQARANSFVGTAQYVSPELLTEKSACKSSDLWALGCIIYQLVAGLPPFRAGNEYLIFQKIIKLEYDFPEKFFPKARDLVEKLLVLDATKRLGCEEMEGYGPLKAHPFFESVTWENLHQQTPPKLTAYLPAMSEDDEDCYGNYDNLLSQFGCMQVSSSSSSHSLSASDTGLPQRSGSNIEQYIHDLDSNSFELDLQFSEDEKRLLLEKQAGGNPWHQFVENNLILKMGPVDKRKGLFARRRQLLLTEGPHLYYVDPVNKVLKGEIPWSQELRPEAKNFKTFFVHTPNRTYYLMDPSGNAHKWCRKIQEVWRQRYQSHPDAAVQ
Type: biochemical
Experimental: Another PDK1 assay was developed which by comparison with PDK1 assay 1 additionally contains Tween 20:
The following components are combined in a well of a 96-well round-based dish (Messrs. Greiner bio-one, No. 650101): • 15 μL of compound to be tested in varying concentrations (e.g. Starting at 10 μM, and diluted in steps of 1:5) in APT buffer (50 mM tris/C1 pH7.5; 0.05% β-mercaptoethanol; 10 mM Mg-acetate; 0.0166% Tween 20; 3.33% DMSO) • 15 μL His6-PDK1 (aa 52-556) 3.33 ng/well) and PDKtide (KTFCGTPEYLAPEVRRE […]), synthesised by Pepceuticals Limited, Nottingham, United Kingdom; 25 μM final concentration); His6-PDK1 and PDKtide are together diluted accordingly in assay buffer (50 mM tris pH 7.5, 0.05% β-mercaptoethanol, 10 mM Mg-acetate); PDKtide is present in this mixture as an 83.3 μM solution. These 30 μL are routinely incubated for 30 min at RT. • 20 μL ATP solution (25 μM ATP with 1.0 μCi/well gamma-P33-ATP). The final concentration of Tween 20 is 0.005%.
The reaction is started by adding the ATP solution and the mixture is incubated for 90 min at ambient temperature; at the start of the reaction the dishes are shaken gently. The reaction is stopped by the addition of 50 μL/well of 500 mM phosphoric acid (H3PO4) and incubated for about 20 min at ambient temperature. The precipitate is transferred by harvesting onto filter plates (96-well microtitre filter plate: UniFilter GF/C; Messrs Perkin Elmer; No. 6005174), then washed 6 times with 50 mM H3PO4 and dried at 60° C. Then the plate is stuck down with sealing tape, 25 μL/well of scintillation solution (Microscint 0; Messrs. Perkin Elmer; No. 6013611) are added and the amount of P33 precipitated is measured using the Wallac Betacounter. The measured data are evaluated using Graphpad Prism software.
The % CTL values indicate the residual activity of the enzyme after the addition of the inhibitory compound in the solvent DMSO in relation to the enzyme activity in the solvent DMSO without the addition of a compound (control). The majority of the values were determined using the PDK1 kinase assay III described hereinbefore. The values marked with an asterisk (*) were determined using the PDK1 kinase assay II described hereinbefore.
With `O=C1Nc2cc(/C=C/CNC(=O)c3cccn(Cc4ccc(Cl)nc4)c3=O)ccc2/C1=C/c1cnc[nH]1` [I-1, 1-[(6-chloropyridin-3-yl)methyl]-N-{(2E)-3-[(3Z)-3-(1H-imidazol-5-ylmethylidene)-2-oxo-2,3-dihydro-1H-indol-6-yl]prop-2-en-1-yl}-2-oxo-1,2-dihydropyridine-3-carboxamide] the remaining activity at 10 µM was 16.8%.
With `O=C1Nc2cc(/C=C/CNC(=O)c3cccn(Cc4ccc(Cl)nc4)c3=O)ccc2/C1=C/c1ccc[nH]1` [I-2, 1-[(6-chloropyridin-3-yl)methyl]-2-oxo-N-{(2E)-3-[(3Z)-2-oxo-3-(1H-pyrrol-2-ylmethylidene)-2,3-dihydro-1H-indol-6-yl]prop-2-en-1-yl}-1,2-dihydropyridine-3-carboxamide] the remaining activity at 10 µM was 21.4%.
Work on `CN(C)CCNC(=O)c1cccc(-c2c[nH]c(/C=C3\C(=O)Nc4cc(/C=C/CNC(=O)c5cccn(Cc6ccc(Cl)nc6)c5=O)ccc43)c2)c1` [I-3, 1-[(6-chloropyridin-3-yl)methyl]-N-{(2E)-3-[(3Z)-3-{[4-(3-{[2-(dimethylamino)-ethyl]carbamoyl}phenyl)-1H-pyrrol-2-yl]methylidene}-2-oxo-2,3-dihydro-1H-indol-6-yl]prop-2-en-1-yl}-2-oxo-1,2-dihydropyridine-3-carboxamide] yielded a remaining activity at 10 µM of 18.9%.
In the case of `O=C1Nc2cc(/C=C/CNC(=O)c3cccn(Cc4cccnc4)c3=O)ccc2/C1=C/c1ccc[nH]1` [I-4, 2-oxo-N-{(2E)-3-[(3Z)-2-oxo-3-(1H-pyrrol-2-ylmethylidene)-2,3-dihydro-1H-indol-6-yl]prop-2-en-1-yl}-1-(pyridin-3-ylmethyl)-1,2-dihydropyridine-3-carboxamide], the remaining activity at 10 µM was 18.6%.
`O=C1Nc2cc(/C=C/CNC(=O)c3cccn(Cc4ccncc4)c3=O)ccc2/C1=C/c1ccc[nH]1` [I-5, 2-oxo-N-{(2E)-3-[(3Z)-2-oxo-3-(1H-pyrrol-2-ylmethylidene)-2,3-dihydro-1H-indol-6-yl]prop-2-en-1-yl}-1-(pyridin-4-ylmethyl)-1,2-dihydropyridine-3-carboxamide] showed a remaining activity at 10 µM of 39.6%.
`O=C1Nc2cc(/C=C/CNC(=O)c3cccn(Cc4ccccn4)c3=O)ccc2/C1=C/c1ccc[nH]1` [I-6, 2-oxo-N-{(2E)-3-[(3Z)-2-oxo-3-(1H-pyrrol-2-ylmethylidene)-2,3-dihydro-1H-indol-6-yl]prop-2-en-1-yl}-1-(pyridin-2-ylmethyl)-1,2-dihydropyridine-3-carboxamide] was tested, and the remaining activity at 10 µM was 20.1%.
`O=C1Nc2cc(/C=C/CNC(=O)c3cccn(Cc4cccnc4)c3=O)ccc2/C1=C/c1cnc[nH]1` [I-7, N-{(2E)-3-[(3Z)-3-(1H-imidazol-5-ylmethylidene)-2-oxo-2,3-dihydro-1H-indol-6-yl]prop-2-en-1-yl}-2-oxo-1-(pyridin-3-ylmethyl)-1,2-dihydropyridine-3-carboxamide] gave a remaining activity at 10 µM of 14.5%.
With `O=C1Nc2cc(/C=C/CNC(=O)c3cccn(Cc4ccncc4)c3=O)ccc2/C1=C/c1cnc[nH]1` [I-8, N-{(2E)-3-[(3Z)-3-(1H-imidazol-5-ylmethylidene)-2-oxo-2,3-dihydro-1H-indol-6-yl]prop-2-en-1-yl}-2-oxo-1-(pyridin-4-ylmethyl)-1,2-dihydropyridine-3-carboxamide] the remaining activity at 10 µM was 25.1%.
`O=C1Nc2cc(/C=C/CNC(=O)c3cccn(Cc4ccccn4)c3=O)ccc2/C1=C/c1cnc[nH]1` [I-9, N-{(2E)-3-[(3Z)-3-(1H-imidazol-5-ylmethylidene)-2-oxo-2,3-dihydro-1H-indol-6-yl]prop-2-en-1-yl}-2-oxo-1-(pyridin-2-ylmethyl)-1,2-dihydropyridine-3-carboxamide] gave a remaining activity at 10 µM of 17.7%.
`O=C1Nc2cc(/C=C/CNC(=O)c3cccn(CC4CCCCC4)c3=O)ccc2/C1=C/c1ccc[nH]1` [I-13, 1-(cyclohexylmethyl)-2-oxo-N-{(2E)-3-[(3Z)-2-oxo-3-(1H-pyrrol-2-ylmethylidene)-2,3-dihydro-1H-indol-6-yl]prop-2-en-1-yl}-1,2-dihydropyridine-3-carboxamide] was tested, and the remaining activity at 10 µM was 25.7%.
With `Cc1ccc(Cn2cccc(C(=O)NC/C=C/c3ccc4c(c3)NC(=O)/C4=C\c3cnc[nH]3)c2=O)cn1` [I-24, N-{(2E)-3-[(3Z)-3-(1H-imidazol-5-ylmethylidene)-2-oxo-2,3-dihydro-1H-indol-6-yl]prop-2-en-1-yl}-1-[(6-methylpyridin-3-yl)methyl]-2-oxo-1,2-dihydropyridine-3-carboxamide] the remaining activity at 10 µM was 20.1%.
In the case of `O=C1Nc2cc(/C=C/CNC(=O)c3cccn(CC4CCCCC4)c3=O)ccc2/C1=C/c1cnc[nH]1` [I-25, 1-(cyclohexylmethyl)-N-{(2E)-3-[(3Z)-3-(1H-imidazol-5-ylmethylidene)-2-oxo-2,3-dihydro-1H-indol-6-yl]prop-2-en-1-yl}-2-oxo-1,2-dihydropyridine-3-carboxamide], the remaining activity at 10 µM was 15.1%.
Work on `Cn1cncc1Cn1cccc(C(=O)NC/C=C/c2ccc3c(c2)NC(=O)/C3=C\c2cnc[nH]2)c1=O` [I-26, N-{(2E)-3-[(3Z)-3-(1H-imidazol-5-ylmethylidene)-2-oxo-2,3-dihydro-1H-indol-6-yl]prop-2-en-1-yl}-1-[(1-methyl-1H-imidazol-5-yl)methyl]-2-oxo-1,2-dihydropyridine-3-carboxamide] yielded a remaining activity at 10 µM of 34.1%.
In the case of `Cn1cnc(Cn2cccc(C(=O)NC/C=C/c3ccc4c(c3)NC(=O)/C4=C\c3cnc[nH]3)c2=O)c1` [I-27, N-{(2E)-3-[(3Z)-3-(1H-imidazol-5-ylmethylidene)-2-oxo-2,3-dihydro-1H-indol-6-yl]prop-2-en-1-yl}-1-[(1-methyl-1H-imidazol-4-yl)methyl]-2-oxo-1,2-dihydropyridine-3-carboxamide], the remaining activity at 10 µM was 47.7%.
In the case of `CN(C)Cc1ccc(Nc2ncc3cc(C#CCNC(=O)c4cccn(Cc5ccc(C(F)(F)F)nc5)c4=O)ccc3n2)cc1` [II-6, N-{3-[2-({4-[(dimethylamino)methyl]phenyl}amino)quinazolin-6-yl]prop-2-yn-1-yl}-2-oxo-1-{[6-(trifluoromethyl)pyridin-3-yl]methyl}-1,2-dihydropyridine-3-carboxamide], the remaining activity at 10 µM was 16%.
Compound `CN1CCC(Nc2ccc(Nc3ncc4cc(C#CCNC(=O)c5cccn(Cc6ccc(C(F)(F)F)nc6)c5=O)ccc4n3)cc2F)CC1` [II-7, N-{3-[2-({3-fluoro-4-[(1-methylpiperidin-4-yl)amino]phenyl}amino)quinazolin-6-yl]prop-2-yn-1-yl}-2-oxo-1-{[6-(trifluoromethyl)pyridin-3-yl]methyl}-1,2-dihydropyridine-3-carboxamide] has a remaining activity at 10 µM of 18.6%.
`CN(C)Cc1ccc(Nc2ncc3cc(/C=C/CNC(=O)c4cccn(Cc5cccnc5)c4=O)ccc3n2)cc1` [III-12, N-{(2E)-3-[2-({4-[(dimethylamino)methyl]phenyl}amino)quinazolin-6-yl]prop-2-en-1-yl}-2-oxo-1-(pyridin-3-ylmethyl)-1,2-dihydropyridine-3-carboxamide] gave a remaining activity at 10 µM of 18.3%.
In the case of `CN(C)Cc1ccc(Nc2ncc3cc(/C=C/CNC(=O)c4cccn(Cc5ccc(Cl)nc5)c4=O)ccc3n2)cc1` [III-13, 1-[(6-chloropyridin-3-yl)methyl]-N-{(2E)-3-[2-({4-[(dimethylamino)methyl]-phenyl}amino)quinazolin-6-yl]prop-2-en-1-yl}-2-oxo-1,2-dihydropyridine-3-carboxamide], the remaining activity at 10 µM was 13.6%.
Work on `CN1CCC(Nc2ccc(Nc3ncc4cc(/C=C/CNC(=O)c5cccn(Cc6ccc(C(F)(F)F)nc6)c5=O)ccc4n3)cc2F)CC1` [III-14, N-{(2E)-3-[2-({3-fluoro-4-[(1-methylpiperidin-4-yl)amino]phenyl}amino)quinazolin-6-yl]prop-2-en-1-yl}-2-oxo-1-{[6-(trifluoromethyl)pyridin-3-yl]methyl}-1,2-dihydropyridine-3-carboxamide] yielded a remaining activity at 10 µM of 17.2%.
